Measured values taken from patent publication US4939124A, “Treatment and diagnosis of dementia” (Laboratorios Serono S.A., priority 1988, dated 1990).

How the values were obtained:
growth hormone (GH) = assay: GRF test: GRF-induced plasma GH response (radioimmunoassay); type: in vivo, human; settings: for GRF-induced GH response: GRF(1-44)NH2 100 mcg i.v. bolus
From the text: The subjects were divided into three groups:
(a) controls (N =9): 5 females and 4 males (age =70.10±2.76 years; range =66-75);
(b) inpatients with early onset senile dementia of the Alzheimer type (EOSDAT) (N =10): 5 females and 5 males (age 65.00±3.31 years; range =57-69); and
(c) inpatients with late onset senile dementia of the Alzheimer type (LOSDAT) (N =10): 5 females and 5 males (age =75.70±3.77 years; range =70-82).
(§1) All the SDAT patients met the DSM-III criteria for primary degenerative dementia and rigorous diagnostic criteria for SDAT. […] In LOSDAT, the onset of the disease occurred after the age of 60. The degree of severity of the dementia was assessed with Hasegawa's Dementia Rating Scale (DRS) (Hasegawa K., Inoue K. "An investigation of dementia rating scale for the elderly." Seishinigaku 16:965-969, 1974), Folstein's Mini-Mental State (MMS) Test (Folstein M. F., Folstein S., McHugh P. "Mini-mental state: a practical method for grading the cognitive state of patients for the clinician." J. Psychiat. Res. 12:189-198, 1975) and a modified model of the Brief Cognitive Rating Scale (BCRS) and Functional Assessment Stages (FAST) of Reisberg (Reisberg B., Ferris S. H., De Leon M. J. "Senile dementia of the Alzheimer type: Diagnosis and differential diagnostic features with special reference to functional assessment staging." in: Traber J., Gispen W. H. (Ed). Senile dementia of the Alzheimer type. pp 18-37, Springer-Verlag, Berlin, 1985). Concomitant pathology other than SDAT was discarded under a careful screening of the subjects with CT Scan, EEG, ECG and complementary laboratory data. Current diagnosis or history of SDM-III major affective disorder or schizophrenia as well as history of endocrine disease were criteria for exclusion. All of the control subjects were free of psychiatric and endocrine illness. All subjects included had been drug-free for a minimum of 7 days before testing.
A 21-gauge indwelling venous needle with an attached three-way stopcook was inserted into the antecubital vein. Baseline blood samples for GH determination were collected immediately before testing. GRF(1-44)NH2was then injected as an intravenous bolus (100 mcg), and blood samples were obtained at 15, 30, 45, 60, 90 and 120 minutes after injection for determination of GH concentrations in plasma. The plasma GH levels were measured by radioimmunoassay using a commercial GH-RIA-Kit (Dainabot Co. Ltd. Tokyo). The intra- and inter-assay coefficients of variation were 6.9% and 10.6%, respectively.
(§2) The results were analyzed statistically by the Student's test, analysis of variance (ANOVA) and the Mann-Whitney test using a NEC PC-9801VM2 computer.

[1] = test system: SDAT patients and controls; assay: Mental performance and behavior after the GRF test (DRS, MMS, BCRS, MNS); type: in vivo, human; settings: for DRS score: basal 3.5±1.75; for MMS score: basal 3.5±2.65
Method: as §1
Simultaneously to the performance of the GRF test, electroencephalograhic and cardiovascular monitorization of the subjects were carried out. Twenty-four hours prior to the GRF test, and 3, 12, 24 and 48 hours after testing, the DRS, MMS, BCRS, and FAST tests were performed to evaluate mental performance and behavior. Additional monitoring of GRF effects was done by global physician assessment and evaluation of the Mihara Nursing Scale (MNS). This test was developed to be used as a non-cognitive parametric indicator involving several items, including quantification of food intake, locomotion, social interaction, and complementary laboratory data.
as §2

In the case of growth hormone releasing factor [GRF], the “plasma GH” value (growth hormone (GH); CONTROL (females), 0 min (basal, before GRF(1-44)NH2 100 mcg i.v.)) is reported as 1.03 ± 0.94 ng/mL, the “plasma GH” value (growth hormone (GH); CONTROL (females), 15 min after GRF(1-44)NH2 100 mcg i.v.) is reported as 3.09 ± 1.58 ng/mL and the “plasma GH” value (growth hormone (GH); CONTROL (females), 30 min after GRF(1-44)NH2 100 mcg i.v.) is reported as 3.68 ± 2.09 ng/mL. The “plasma GH” value (growth hormone (GH); CONTROL (females), 45 min after GRF(1-44)NH2 100 mcg i.v.) was 4.28 ± 3.38 ng/mL, the “plasma GH” value (growth hormone (GH); CONTROL (females), 60 min after GRF(1-44)NH2 100 mcg i.v.) was 2.97 ± 1.96 ng/mL and the “plasma GH” value (growth hormone (GH); CONTROL (females), 90 min after GRF(1-44)NH2 100 mcg i.v.) was 2.04 ± 1.38 ng/mL. For the same substance, the “plasma GH” value (growth hormone (GH); CONTROL (females), 120 min after GRF(1-44)NH2 100 mcg i.v.) was 1.10 ± 0.95 ng/mL, the “plasma GH” value (growth hormone (GH); CONTROL (males), 0 min (basal, before GRF(1-44)NH2 100 mcg i.v.)) was 1.07 ± 0.92 ng/mL and the “plasma GH” value (growth hormone (GH); CONTROL (males), 15 min after GRF(1-44)NH2 100 mcg i.v.) was 2.21 ± 1.87 ng/mL. For the same substance, the “plasma GH” value (growth hormone (GH); CONTROL (males), 30 min after GRF(1-44)NH2 100 mcg i.v.) was 3.16 ± 2.76 ng/mL, the “plasma GH” value (growth hormone (GH); CONTROL (males), 45 min after GRF(1-44)NH2 100 mcg i.v.) was 5.17 ± 3.46 ng/mL and the “plasma GH” value (growth hormone (GH); CONTROL (males), 60 min after GRF(1-44)NH2 100 mcg i.v.) was 3.17 ± 2.61 ng/mL. For the same substance, the “plasma GH” value (growth hormone (GH); CONTROL (males), 90 min after GRF(1-44)NH2 100 mcg i.v.) was 1.88 ± 1.87 ng/mL, the “plasma GH” value (growth hormone (GH); CONTROL (males), 120 min after GRF(1-44)NH2 100 mcg i.v.) was 0.91 ± 0.87 ng/mL and the “delay of GH response relative to the small peak in control subjects” value (growth hormone (GH); EOSDAT) was “about 15 minutes”. For the same substance, the “plasma GH” value (growth hormone (GH); EOSDAT (females), 0 min (basal, before GRF(1-44)NH2 100 mcg i.v.)) was 1.92 ± 1.52 ng/mL, the “plasma GH” value (growth hormone (GH); EOSDAT (females), 15 min after GRF(1-44)NH2 100 mcg i.v.) was 2.23 ± 1.90 ng/mL and the “plasma GH” value (growth hormone (GH); EOSDAT (females), 30 min after GRF(1-44)NH2 100 mcg i.v.) was 6.26 ± 2.05 ng/mL. For the same substance, the “plasma GH” value (growth hormone (GH); EOSDAT (females), 45 min after GRF(1-44)NH2 100 mcg i.v.) was 14.86 ± 3.57 ng/mL, the “plasma GH” value (growth hormone (GH); EOSDAT (females), 60 min after GRF(1-44)NH2 100 mcg i.v.) was 19.74 ± 4.86 ng/mL and the “plasma GH” value (growth hormone (GH); EOSDAT (females), 90 min after GRF(1-44)NH2 100 mcg i.v.) was 11.28 ± 5.72 ng/mL. For the same substance, the “plasma GH” value (growth hormone (GH); EOSDAT (females), 120 min after GRF(1-44)NH2 100 mcg i.v.) was 5.09 ± 3.01 ng/mL, the “plasma GH” value (growth hormone (GH); EOSDAT (males), 0 min (basal, before GRF(1-44)NH2 100 mcg i.v.)) was 1.99 ± 1.67 ng/mL and the “plasma GH” value (growth hormone (GH); EOSDAT (males), 15 min after GRF(1-44)NH2 100 mcg i.v.) was 2.70 ± 1.92 ng/mL. For the same substance, the “plasma GH” value (growth hormone (GH); EOSDAT (males), 30 min after GRF(1-44)NH2 100 mcg i.v.) was 5.49 ± 1.91 ng/mL, the “plasma GH” value (growth hormone (GH); EOSDAT (males), 45 min after GRF(1-44)NH2 100 mcg i.v.) was 6.87 ± 2.84 ng/mL and the “plasma GH” value (growth hormone (GH); EOSDAT (males), 60 min after GRF(1-44)NH2 100 mcg i.v.) was 11.52 ± 2.82 ng/mL. For the same substance, the plasma GH (growth hormone (GH); EOSDAT (males), 90 min after GRF(1-44)NH2 100 mcg i.v.) was 7.41 ng/mL, the “plasma GH” value (growth hormone (GH); EOSDAT (males), 120 min after GRF(1-44)NH2 100 mcg i.v.) was 2.73 ± 1.71 ng/mL and the “rise of plasma GH levels after GRF injection” value (growth hormone (GH); EOSDAT females) was 19.74 ± 4.86 ng·mL. For the same substance, the “rise of plasma GH levels after GRF injection” value (growth hormone (GH); EOSDAT males) was 11.52 ± 2.82 ng/mL, the “rise of plasma GH levels after GRF injection, individual range” value (growth hormone (GH); EOSDAT responders) was 5.5 to 28.75 ng/mL and the “maximum peak of plasma GH” value (growth hormone (GH); EOSDAT, 60 minutes after GRF(1-44)NH2 100 mcg i.v. bolus) was 15.61 ± 5.71 ng/mL. The “plasma GH” value (growth hormone (GH); LOSDAT (females), 0 min (basal, before GRF(1-44)NH2 100 mcg i.v.)) was 1.09 ± 1.01 ng/mL, the “plasma GH” value (growth hormone (GH); LOSDAT (females), 15 min after GRF(1-44)NH2 100 mcg i.v.) was 2.04 ± 1.01 ng/mL and the “plasma GH” value (growth hormone (GH); LOSDAT (females), 30 min after GRF(1-44)NH2 100 mcg i.v.) was 3.65 ± 2.35 ng/mL. The “plasma GH” value (growth hormone (GH); LOSDAT (females), 45 min after GRF(1-44)NH2 100 mcg i.v.) was 4.68 ± 3.18 ng/mL, the “plasma GH” value (growth hormone (GH); LOSDAT (females), 60 min after GRF(1-44)NH2 100 mcg i.v.) was 4.97 ± 3.86 ng/mL and the “plasma GH” value (growth hormone (GH); LOSDAT (females), 90 min after GRF(1-44)NH2 100 mcg i.v.) was 4.04 ± 3.22 ng/mL. The “plasma GH” value (growth hormone (GH); LOSDAT (females), 120 min after GRF(1-44)NH2 100 mcg i.v.) was 2.44 ± 2.05 ng/mL, the “plasma GH” value (growth hormone (GH); LOSDAT (males), 0 min (basal, before GRF(1-44)NH2 100 mcg i.v.)) was 0.95 ± 0.98 ng/mL and the “plasma GH” value (growth hormone (GH); LOSDAT (males), 15 min after GRF(1-44)NH2 100 mcg i.v.) was 2.13 ± 0.94 ng/mL. For the same substance, the “plasma GH” value (growth hormone (GH); LOSDAT (males), 30 min after GRF(1-44)NH2 100 mcg i.v.) was 2.81 ± 1.90 ng/mL, the “plasma GH” value (growth hormone (GH); LOSDAT (males), 45 min after GRF(1-44)NH2 100 mcg i.v.) was 3.61 ± 3.51 ng/mL and the “plasma GH” value (growth hormone (GH); LOSDAT (males), 60 min after GRF(1-44)NH2 100 mcg i.v.) was 4.09 ± 2.56 ng/mL. The “plasma GH” value (growth hormone (GH); LOSDAT (males), 90 min after GRF(1-44)NH2 100 mcg i.v.) was 3.08 ± 2.22 ng/mL, the “plasma GH” value (growth hormone (GH); LOSDAT (males), 120 min after GRF(1-44)NH2 100 mcg i.v.) was 1.64 ± 0.82 ng/mL and the “GRF-induced GH response” value (growth hormone (GH); LOSDAT) was “absent”. The “GRF-induced GH response” value (growth hormone (GH); control subjects) was “absent”, the DRS score ([1]; 3 hr after GRF test) was 5.5±2.10 and the MMS score ([1]; 3 hr after GRF test) was 5.15±3.75. The DRS score ([1]; 12 hr after GRF test) was 6.75±3.25, the MMS score ([1]; 12 hr after GRF test) was 5.5±3.65 and the DRS score ([1]; 24 hr after GRF test) was 4.35±1.95. It also gave an MMS score ([1]; 24 hr after GRF test) of 4.5±2.75, a DRS score ([1]; 48 hr after GRF test) of 3.5±1.55 and an MMS score ([1]; 48 hr after GRF test) of 4.35±2.75. For the same substance, the “duration of behavioral changes” value ([1]; BCRS and MNS changes after GRF test) was “transient”, the “BCRS Axis 4 (orientation) affected by GRF” value ([1]; after GRF test) was 30% and the “BCRS Axis 7 (psychomotor) affected by GRF” value ([1]; after GRF test) was 50%. The “BCRS Axis 8 (mood and behavior) affected by GRF” value ([1]; after GRF test) was 40%, the bulimic syndrome developed ([1]; after GRF test) was 2 patients and the “appetite increased (MNS), share of subjects” value ([1]; controls) was 30%. The “appetite increased (MNS), share of subjects” value ([1]; patients) was 45% and the “social interaction improved (MNS), share of subjects” value ([1]; patients) was 40%.
